O=C[C@H](O)[C@@H](O)[C@H](O)[C@H](O)CO
Settings	solubility (mole fraction)
in n-decanol, 348.15 K	0.000902
in n-decanol, 353.15 K	0.000984
in n-decanol, 357.15 K	0.00119
in n-decanol, 367.15 K	0.00154
in n-decanol, 372.15 K	0.00178
in n-decanol, 377.15 K	0.00204
in n-decanol, 382.15 K	0.00239
in n-decanol, 387.15 K	0.00264
in n-decanol, 392.15 K	0.00327
in n-dodecanol, 349.15 K	0.000762
in n-dodecanol, 355.15 K	0.000802
in n-dodecanol, 360.15 K	0.000865
in n-dodecanol, 365.15 K	0.0011
in n-dodecanol, 370.15 K	0.0013
in n-dodecanol, 375.15 K	0.0014
in n-dodecanol, 382.15 K	0.00156
in n-dodecanol, 387.15 K	0.00186
in n-dodecanol, 393.15 K	0.00203
in n-octanol, 345.15 K	0.00098
in n-octanol, 355.15 K	0.00153
in n-octanol, 364.15 K	0.00192
in n-octanol, 369.15 K	0.00228
in n-octanol, 374.15 K	0.00241
in n-octanol, 379.15 K	0.0029
in n-octanol, 383.15 K	0.00341

Source: BigSolDB 2.1
